Assay results taken from article PMC9556364, “The effect of rifampin on the pharmacokinetics of famitinib in healthy subjects” (Cancer Chemotherapy and Pharmacology, 2022).
Several values for one entry are separate records, joined by “and”; a condition that tells them apart may be missing. Equal entries are not always repeated.

Legend:
[1] = cited from earlier work; for Decrease of AUC when administered simultaneously with rifampin / Decrease of Cmax when administered simultaneously with rifampin: ref 21 (imitinib), 22 (gefitinib), 23 (erlotinib), 24 (afatinib)
[2] = cited from earlier work
[3] = test system: CYP3A4; set-up: method as in PMID 23126373; conditions: recombinant human isozymes, microsomal chemical inhibition; cited from earlier work
[4] = Safety and tolerability (treatment emergent adverse events, CTCAE v5.0) in the DDI study; conditions: for Subjects with treatment-related TEAEs: famitinib alone Days 1–9 (1/21), rifampin alone Days 10–15 (3/21), combination Days 16–23 (4/20)
Protocol: Safety and tolerability were evaluated by monitoring vital signs, physical examination, laboratory tests, electrocardiogram (ECG) and adverse events (AEs). Vital signs, including body temperature, blood pressure (BP) and heart rate, were measured and ECG were performed during baseline period, before drug administration and at 4, 24, 48, 192 h after famitinib administration. Clinical laboratory tests were conducted at screening, day 9, 15, and prior to discharge. AEs, including all subjective symptoms reported by subjects and objective signs observed by clinical investigators, were collected after dosing throughout the study.
Safety parameters of the safety analysis sets were summarized using descriptive statistics. AEs were graded according to Common Terminology Criteria for Adverse Events (CTCAE, version 5.0) and coded using Medical Dictionary for Regulatory Activities (MedDRA, version 19.0) System Organ Class (SOC) and Preferred Terms (PT).

[5] = Drug-drug interaction study: plasma pharmacokinetics of single oral famitinib 25 mg alone and with steady-state rifampin 600 mg once daily (LC-MS/MS, noncompartmental analysis); conditions: for CL/F / AUC(0-t) / AUC(0-inf) / Cmax / k el: geometric mean (geometric CV, %); for AUC(0-t): AUC0–t; for AUC(0-inf): AUC0–∞; for Tmax: median (min, max); for k el: λz
Protocol: The DDI study was an open-label, self-contrast study comprising the following two periods: period 1 (Days 1–9), administration of a single oral dose of famitinib 25 mg alone in the morning of study day 1; period 2 (Days 10–23), repeated administration of oral rifampin 600 mg once daily for 14 days in the morning of days 10–23, and co-administration of a single dose of famitinib 25 mg on Day 16. […] In the two periods, oral doses of famitinib were administered after an overnight fast (at least 10 h) with 240 mL room-temperature water. Subjects were forbidden to drink water within 1 h before and after taking famitinib, and the lunch and dinner were provided at 4 h and 8 h,, respectively, post-drug administration (Day 1, 16). In the second period, subjects received rifampin in the fasting state with 240 mL water and had regular meals 1 h after the dose. Cigarettes, caffeinated drinks and alcoholic products were prohibited during the whole trial period, and when the subjects stayed in the study center (Days 1–4, 10–23), the only food permitted was prepared and provided at predetermined times by the researchers.
Samples were centrifuged within 1 h at 1500xg for 10 min at 4℃ to separate the plasma, which was divided into two aliquots (drug monitoring at least 800ul and backup) and stored at – 80 °Cuntil analysis.
Plasma concentrations of famitinib were analysed using a validated liquid chromatography-tandem mass spectrometry (LC–MS/MS) method [9, 15] at Frontage Laboratories Co., Ltd (Shanghai, China). The calibration curve for famitinib covered ranges of 0.050-100 ng/ml. The low limit of qualification (LLOQ) was 0.050 ng/ml.
Pharmacokinetic (PK) parameters for famitinib in plasma were estimated by noncompartmental analysis using Phoenix WinNonlin (version 7.0, Pharsight Corporation, St Louis, MO, USA). The primary endpoints were the maximum plasma famitinib concentration (Cmax), the area under the plasma concentration–time curve from time 0 to the last measured time point (AUC0–t), and the area under the plasma concentration–time curve from time 0 to infinity (AUC0–∞). The secondary PK parameters included time to Cmax (Tmax) and the elimination half-life (T1/2), the terminal exponential rate constant (λz), the apparent total body clearance (CL/F). Cmax and Tmax were observed directly from the original concentration–time data.
All subjects who received the study drug and for whom at least one PK parameter data was available were included in the PK analysis sets. The safety analysis sets included subjects who received at least one dose of famitinib or rifampin. Statistical analysis was performed using SAS 9.4 (SAS Inc., Cary, NC, USA). […] The measurement data were expressed as mean ± standard deviation (SD), and categorical variables were described by the percentage.

[6] = target: T1, P-gp (Homo sapiens, UniProt P08183); assay: In vitro P-gp interaction study in Caco-2 cells; assay type: in vitro ADME
T1 construct: endogenous in cells; host or cells: Caco-2
T1 sequence (P08183 whole entry): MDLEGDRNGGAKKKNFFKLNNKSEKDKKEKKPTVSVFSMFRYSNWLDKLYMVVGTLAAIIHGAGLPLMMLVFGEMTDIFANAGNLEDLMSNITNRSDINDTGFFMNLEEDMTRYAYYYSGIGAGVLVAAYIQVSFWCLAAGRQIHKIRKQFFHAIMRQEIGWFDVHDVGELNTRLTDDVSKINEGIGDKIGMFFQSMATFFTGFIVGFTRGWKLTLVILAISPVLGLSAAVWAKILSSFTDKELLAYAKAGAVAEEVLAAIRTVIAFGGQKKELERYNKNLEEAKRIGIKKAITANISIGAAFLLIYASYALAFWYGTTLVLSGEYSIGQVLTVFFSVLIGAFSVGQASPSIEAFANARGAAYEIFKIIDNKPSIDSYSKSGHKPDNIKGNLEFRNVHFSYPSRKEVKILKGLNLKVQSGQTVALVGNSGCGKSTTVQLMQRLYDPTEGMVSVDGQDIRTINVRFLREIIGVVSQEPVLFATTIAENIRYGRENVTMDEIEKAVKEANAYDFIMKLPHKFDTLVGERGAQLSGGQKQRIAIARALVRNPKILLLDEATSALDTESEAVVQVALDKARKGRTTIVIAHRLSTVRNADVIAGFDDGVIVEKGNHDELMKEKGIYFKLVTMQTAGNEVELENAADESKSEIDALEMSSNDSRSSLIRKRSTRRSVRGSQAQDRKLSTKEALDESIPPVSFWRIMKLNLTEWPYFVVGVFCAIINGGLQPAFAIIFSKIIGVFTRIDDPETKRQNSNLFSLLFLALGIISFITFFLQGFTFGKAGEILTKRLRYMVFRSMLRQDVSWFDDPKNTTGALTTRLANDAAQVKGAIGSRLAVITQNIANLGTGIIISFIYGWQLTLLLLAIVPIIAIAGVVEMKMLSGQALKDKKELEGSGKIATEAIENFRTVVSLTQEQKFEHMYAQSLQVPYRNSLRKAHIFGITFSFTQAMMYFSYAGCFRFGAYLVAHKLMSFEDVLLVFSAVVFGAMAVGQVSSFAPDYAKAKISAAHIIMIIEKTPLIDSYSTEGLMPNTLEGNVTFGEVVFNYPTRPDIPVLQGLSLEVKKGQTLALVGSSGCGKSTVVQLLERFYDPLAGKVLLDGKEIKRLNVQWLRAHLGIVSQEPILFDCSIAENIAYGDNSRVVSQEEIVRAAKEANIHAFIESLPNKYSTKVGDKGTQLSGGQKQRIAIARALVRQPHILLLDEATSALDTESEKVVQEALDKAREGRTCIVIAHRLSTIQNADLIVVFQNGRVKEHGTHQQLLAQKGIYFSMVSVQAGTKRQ
From the text: Except as a strong CYP3A inducer, rifampin is also recognized as a substrate and inducer of permeability glycoprotein (P-gp), an important ATP-binding cassette transporter, upon multiple dosing. […] Therefore, the interaction between famitinib and P-gp as well as OATP needs to be considered, to evaluate whether the changes of famitinib exposure caused by the strong CYP3A inducer are affected.

[7] = famitinib 25 mg with rifampin 600 mg vs alone
[8] = famitinib + rifampin period, individual subjects, LLOQ 0.050
[9] = famitinib alone period, individual subjects
[10] = male, human, plasma, po, 25 mg, famitinib 25 mg + rifampin, N = 20
[11] = male, human, plasma, po, 25 mg, famitinib 25 mg alone, N = 21
[12] = healthy volunteers, vs sunitinib alone

CN(C)C/C=C/C(=O)Nc1cc2c(Nc3ccc(F)c(Cl)c3)ncnc2cc1O[C@H]1CCOC1 [afatinib]
Decrease of AUC when administered simultaneously with rifampin [1]: 34%
Decrease of Cmax when administered simultaneously with rifampin [1]: 22%

C#Cc1cccc(Nc2ncnc3cc(OCCOC)c(OCCOC)cc23)c1 [erlotinib]
Decrease of AUC when administered simultaneously with rifampin [1]: 69%
Decrease of Cmax when administered simultaneously with rifampin [1]: 39%

CCN(CC)CCN1CCc2[nH]c(/C=C3\C(=O)Nc4ccc(F)cc43)c(C)c2C1=O [famitinib, Famitinib malate]
Mean time to maximum concentration (Tmax) ([2]; 25 mg famitinib, healthy subjects): 5.9 ± 3.8 h
Time of peak concentration (Cmax) after a single oral administration ([2]; 4–27 mg famitinib, cancer patients): 3.3 to 5.3 h
Effect of food on the pharmacokinetics [2]: minimal effect
Accumulation ratio (Day28/Day1) of AUC0–24 h ([2]; continuous dosing): 2.53
Accumulation ratio (Day28/Day1) of Cmax ([2]; continuous dosing): 2.15
Elimination via biliary-fecal route ([2]; human): approximately 56.3 % of the administered dose
Pathway most important to metabolic clearance [3]: CYP3A4-mediated N-desethylation is most important
Subjects with treatment-related TEAEs [4]: 4.8%
Tolerability ([4]; single dose famitinib 25 mg, alone and in combination with multiple doses of rifampin): well tolerated
Subjects reporting treatment emergent adverse events (TEAEs) ([4]; whole study, 8/21 subjects, all grade 1–2): 38.1%
CL/F ([5]; famitinib 25 mg + rifampin, N = 20): 61.4 (16.5) L/h
CL/F ([5]; famitinib 25 mg alone, N = 21): 18.9 (18.0) L/h
Decrease of geometric mean AUC0–t in the presence of rifampin [5, 7]: 69%
Decrease of geometric mean AUC0–∞ in the presence of rifampin [5, 7]: 69%
Decrease of geometric mean Cmax in the presence of rifampin [5, 7]: 48%
Plasma concentration of famitinib, 144h [5, 8]: BLQ<0.050 ng / mL
Plasma concentration of famitinib, 192h [5, 8]: BLQ<0.050 ng / mL
Plasma concentration of famitinib, before dosing [5, 8]: BLQ<0.050 ng / mL
Plasma concentration of famitinib, 1h [5, 9]: 12.172 ng/mL and 10.070 ng/mL and 23.342 ng/mL and 11.725 ng/mL and 7.749 ng/mL and 13.952 ng/mL and 8.453 ng/mL and 16.495 ng/mL and 11.559 ng/mL and 9.713 ng/mL and 14.845 ng/mL and 9.794 ng/mL and 13.641 ng/mL and 7.456 ng/mL and 5.075 ng/mL
Plasma concentration of famitinib, 2h [5, 9]: 19.290 ng/mL and 11.263 ng/mL and 27.171 ng/mL and 17.301 ng/mL and 11.179 ng/mL and 19.862 ng/mL and 16.456 ng/mL and 17.403 ng/mL and 19.212 ng/mL and 16.738 ng/mL and 25.161 ng/mL and 11.223 ng/mL and 13.668 ng/mL and 15.742 ng/mL and 7.198 ng/mL
Plasma concentration of famitinib, 3h [5, 9]: 24.870 ng/mL and 24.032 ng/mL and 35.652 ng/mL and 17.196 ng/mL and 13.891 ng/mL and 21.638 ng/mL and 20.909 ng/mL and 26.523 ng/mL and 20.328 ng/mL and 19.378 ng/mL and 25.658 ng/mL and 13.587 ng/mL and 23.069 ng/mL and 22.375 ng/mL and 13.449 ng/mL
Plasma concentration of famitinib, 4h [5, 9]: 28.028 ng/mL and 28.292 ng/mL and 40.156 ng/mL and 20.043 ng/mL and 16.081 ng/mL and 19.854 ng/mL and 21.159 ng/mL and 24.187 ng/mL and 24.994 ng/mL and 22.750 ng/mL and 36.134 ng/mL and 11.368 ng/mL and 18.316 ng/mL and 23.577 ng/mL and 15.599 ng/mL
Plasma concentration of famitinib, 5h [5, 9]: 34.268 ng/mL and 39.992 ng/mL and 39.262 ng/mL and 34.731 ng/mL and 23.153 ng/mL and 38.641 ng/mL and 37.246 ng/mL and 34.840 ng/mL and 39.863 ng/mL and 36.023 ng/mL and 38.105 ng/mL and 23.878 ng/mL and 27.444 ng/mL and 47.892 ng/mL
Plasma concentration of famitinib, 6h [5, 9]: 43.837 ng/mL and 41.218 ng/mL and 38.122 ng/mL and 30.476 ng/mL and 37.003 ng/mL and 33.261 ng/mL and 32.099 ng/mL and 44.461 ng/mL and 40.451 ng/mL and 44.411 ng/mL and 30.717 ng/mL and 31.790 ng/mL and 38.642 ng/mL
Plasma concentration of famitinib, 8h [5, 9]: 36.756 ng/mL and 37.274 ng/mL and 37.931 ng/mL and 31.453 ng/mL and 34.655 ng/mL and 28.227 ng/mL and 26.193 ng/mL and 38.443 ng/mL and 33.433 ng/mL and 40.722 ng/mL and 30.892 ng/mL and 27.531 ng/mL and 41.552 ng/mL
Plasma concentration of famitinib, before dosing ([5]; famitinib alone period, individual subjects, LLOQ 0.050): BLQ<0.050 ng / mL
concentration at 6 h ([5]; human, plasma, oral, 25 mg, Plasma concentration of famitinib, famitinib alone period, individual subjects): 44.3 ng/mL
concentration at 8 h ([5]; human, plasma, oral, 25 mg, Plasma concentration of famitinib, 8h, famitinib alone period, individual subjects): 42.1 ng/mL
concentration at 12 h ([5]; human, plasma, oral, 25 mg, Plasma concentration of famitinib, 12h, famitinib alone period, individual subjects): 22.5 ng/mL
concentration at 24 h ([5]; human, plasma, oral, 25 mg, Plasma concentration of famitinib, 24h, famitinib alone period, individual subjects): 14 ng/mL
concentration at 48 h ([5]; human, plasma, oral, 25 mg, Plasma concentration of famitinib, 48h, famitinib alone period, individual subjects): 7.26 ng/mL
concentration at 6 h ([5]; human, plasma, oral, Plasma concentration of famitinib, famitinib + rifampin period, individual subjects): 22 ng/mL
concentration at 144 h ([5]; human, plasma, oral, Plasma concentration of famitinib, 144h, famitinib + rifampin period, individual subjects, LLOQ 0.050): 0.063 ng/mL
half-life ([5]; male, human, plasma, po, 25 mg): 33.9 h
AUC(0-t) [5, 10]: 405 ng·h/mL
AUC(0-t) [5, 11]: 1300 ng·h/mL
AUC(0-inf) [5, 10]: 407 ng·h/mL
AUC(0-inf) [5, 11]: 1320 ng·h/mL
Cmax ([5]; male, human, plasma, po, 25 mg, famitinib 25 mg + steady-state rifampin 600 mg once daily, N = 20): 20.1 ng/mL
Cmax ([5]; male, human, plasma, po, 25 mg, famitinib 25 mg single oral dose alone, N = 21): 38.7 ng/mL
Tmax [5, 10]: 5.5 h
Tmax [5, 11]: 6 h
k el [5, 10]: 1.08e-05 s⁻¹
k el [5, 11]: 5.83e-06 s⁻¹
P-gp substrate, inducer or inhibitor [6]: neither a substrate, an inducer or inhibitor

COc1cc2ncnc(Nc3ccc(F)c(Cl)c3)c2cc1OCCCN1CCOCC1 [gefitinib]
Decrease of AUC when administered simultaneously with rifampin [1]: 83%
Decrease of Cmax when administered simultaneously with rifampin [1]: 65%

Cc1ccc(NC(=O)c2ccc(CN3CCN(C)CC3)cc2)cc1Nc1nccc(-c2cccnc2)n1 [imitinib]
Decrease of AUC when administered simultaneously with rifampin [1]: 74%
Decrease of Cmax when administered simultaneously with rifampin [1]: 54%

CO[C@H]1/C=C/O[C@@]2(C)Oc3c(C)c(O)c4c(O)c(c(/C=N/N5CCN(C)CC5)c(O)c4c3C2=O)NC(=O)/C(C)=C\C=C\[C@H](C)[C@H](O)[C@@H](C)[C@@H](O)[C@@H](C)[C@H](OC(C)=O)[C@@H]1C [rifampin, Rifampicin]
Subjects with treatment-related TEAEs [4]: 14.3%

CCN(CC)CCNC(=O)c1c(C)[nH]c(/C=C2\C(=O)Nc3ccc(F)cc32)c1C [sunitinib]
Fold reduction in AUC on coadministration with rifampin [1, 12]: 4.8 fold
Fold reduction in Cmax on coadministration with rifampin [1, 12]: 2.3 fold
